Test results from patent publication US20130143825A1, “COMPOUNDS FOR USE IN THE TREATMENT OF DISEASES BASED ON THE EXPRESSION OF TOXIC TRANSCRIPTS” (UNIVERSITAT DE VALENCIA, priority 2010, published 2013).
Non-standard residues stand in square brackets, D forms with d. Residues, ends and D or L forms follow the SMILES beside them. No end group written: not given here.

How the values were obtained:
[1] = tested on: 2-AP-(CUG)23 RNA; assay: 2-aminopurine fluorescence assay (hairpin opening); type: biochemical; conditions: for destructuration of CUG23 probe, comparative 2-aminopurine assay: 100 μM
Description: Measurements of the fluorescence emitted (Y-axis), measured as relative fluorescence units (RFU), by 2-aminopurine in a (CUG)23 RNA (1 μM) in the presence of MblZF (0.1 μM, 1 μM, 2 μM and 5 μM) (A) or p10 (0.1 μM, 1 μM, 2 μM, 5 μM and 100 μM) (B), relative to the fluorescence emitted by the free RNA. p10 caused a 2.9-increase in the fluorescence of 2-AP at 100 μM, which indicates a change towards single-stranded. This effect was not observed when incubating the RNA with DMSO, or with the alanine scanning peptides with sequences: ppyawa and payawe (C).
In order to confirm whether said changes cause a loss of the hairpin loop structure, an experiment was performed using an RNA composed of 23 CUG repeats, wherein a guanine had been substituted with its analogue 2-aminopurine (2-AP-(CUG)23). When 2-AP is in a single-stranded environment, it emits fluorescence at 375 nm. […] However, upon increasing the concentration of p10 to 100 μM (RNA:peptide 1:100), the 2AP-(CUG)23 RNA underwent a conformational change, from double-stranded to single-stranded, with a 2.9-fold increase in the fluorescence emission of the molecule (FIG. 28B). In order to confirm the specificity of this effect, the same experiment was performed, incubating the alanine scanning peptides (payawe and ppyawa) with the 2-AP-(CUG)23 RNA at the same concentration as p10 (100 μM).
As may be observed in FIG. 29, in this example we use the 2-aminopurine assay in order to assay 4 peptides (p11, p5, p12 and p15) in addition to p10, obtained from the deconvolution of the combinatorial peptide library explained in this invention. […] The concentration used in all cases is 100 μM.

[2] = tested on: 103Y-Gal4/+;UAS-CTG(480)/+ flies; assay: Lethality phenotype in pupae caused by expression of 480 CTG under 103Y-Gal4 (females born); type: in vivo, Drosophila; parameters: key: —: - indicates that no females were born, in neither the control tubes and the treated tubes; conditions: females born vs DMSO control
[3] = tested on: FVB wild strain mice; assay: Toxicity of p10 in mammals, intramuscular injection; type: in vivo
Description: In order to study the possible toxic effect of p10 in mammals and establishing the maximum tolerable dose for subsequent assays, the peptide was administered to mice from the FVB wild strain. Due to the low absorption of peptides by the intestinal walls, it was decided to perform intramuscular injections in the anterior tibial muscle of animals 4-5 weeks of age, using four different doses (0.5 μg, 1 μg, 10 μg and 100 μg), with a total of 6 mice per dose (3 females and 3 males). 4 weeks after the injection, the animals were sacrificed and a visual autopsy was performed, jointly with a histomorphological study of the muscle and a blood test (FIG. 31). As a control, animals injected with the same quantity of DMSO (0.2% for the 0.5-μg and 1-μg doses, and 2% for the 10-μg and 100-μg doses) were used.
However, the blood tests did show differences between the treated animals and the control. As a marker of renal activity, we measured the quantity of […], urea and creatinine in the blood. The creatine phosphokinase (CPK) enzyme was used as a marker of damage to the skeletal muscle and the heart, and alkaline phosphatase (AP), gamma-glutamyl transpeptidase (GGT) and glutamate pyruvate transaminase (GPT) were used as markers of hepatic damage. […] This could be due to the toxicity of DMSO or to the injection itself. […] Urea is the final result of protein metabolism. It is formed in the liver and eliminated in the urine. If the kidney is not functioning correctly, urea accumulates in the blood. GPT is an enzyme that is present in the liver at a high concentration and, to a lower extent, in the kidneys, the heart and the muscles. When there is an injury in these organs, the enzyme is released into the blood and appears high in tests. Moreover, it is worth noting that two of the mice treated with the 100-μg dose died approximately 11 days after the injection (p/i), which confirms the toxicity of p10 when it exceeds a threshold value. It was possible to extract blood from one of these two animals just before it died.

[4] = tested on: 103Y-Gal4/+;UAS-CTG(480)/+ flies; assay: Lethality phenotype in pupae caused by expression of 480 CTG under 103Y-Gal4 (females born); type: in vivo, Drosophila; conditions: administered to larvae in the food; compared with p10
Description: The 120 vials that make up the chemical library were individually assayed on the lethality phenotype in pupae caused by the expression of 480 CTG under the control of 103Y-Gal4 at a concentration of 80 μM. […] Thus, for positions O1, O2, O3, O4, O5 and O6 of the hexapeptide, a total of six, three, six, four, two and seven active amino acids were obtained, respectively (FIG. 2A). In order to perform the deconvolution, 10 of these 28 amino acids were selected, on the basis of their degree of activity in the biological assay (FIG. 2A). Finally, of the possible combinations, 16 sequences were selected to perform the synthesis of the defined hexapeptides (FIG. 2B). The selection of these 16 peptides was based on redundancy criteria between the physical and chemical properties of active amino acids in similar positions.
At 250 μM, the activity of the peptide decreased, possibly due to a toxic effect of the peptide at higher concentrations.
In order to determine the contribution of each of the p10 residues to their activity on CTG(480), an alanine scanning experiment was performed. These experiments are based on substituting every amino acid of the peptide with alanine and keeping the rest. Alanine is a small amino acid and, in general, not very active; this is why it is used for this type of studies. Since each alanine substitution examines the contribution of an individual amino acid, this experiment makes it possible, on the one hand, to evaluate whether p10 is susceptible to optimisation (in the event that a substitution increases the efficacy of the molecule), or to determine which amino acids are important for its function (in the event that a substitution decreases the activity thereof). The sequence of p10 allows for 5 substitutions; for this reason, 5 new hexapeptides were synthesised which were assayed in relation to the lethality phenotype in 103Y-Gal4; UAS-CTG(480)/+ flies and commercial food.

[5] = tested on: FAM-(CUG)23 RNA; assay: Fluorescence gel retardation assay with FAM-(CUG)23; type: binding; conditions: peptide 2.5 mM, RNA 60 nM
From the text: The changes on the RNA caused by p10 in the FP assay are small, probably due to the low molecular weight of the molecule (less than 900 Da). For this reason, it was decided to supplement the study with gel retardation experiments. These assays are based on the differences in electrophoretic mobility between stable protein-nucleic acid complexes and their components separately. Since the FAM-(CUG)23 RNA was available, it was decided to prepare a fluorescence gel retardation assay. After determining the optimal quantity of RNA for detection (60 nM; FIG. 21A), the binding between the latter and MblZF was studied. Said binding caused both a decrease in the intensity of the band corresponding to the free RNA in the gel and the appearance of a signal in the interior of the gel wells (bound RNA).
In order to determine whether p10 could bind to CUG RNA molecules, it was decided to perform a similar gel retardation experiment between the peptide and FAM-(CUG)23. p10 bound to the RNA, with part of the complex being retained in the well, as described for MblZF. […] This affinity decreased upon decreasing the size of the repeats (FAM-(CUG)4, FIG. 24C). […] This could be due either to a synergic effect between the protein and the peptide or to an additive effect if both should bind to different RNA sites.
In order to study the specificity of the binding observed between p10 and the CUG repeats, two experiments were performed. In the first place, the five hexapeptides generated during the alanine scanning were assayed. […] In the second place, we studied the effect of p10 on other RNA and DNA sequences, both double-stranded and single-stranded, fluorescently labelled with carboxyfluorescein (FAM) (FIG. 25C).

[6] = tested on: CUG60 RNA; assay: Circular dichroism of CUG60 RNA; type: binding; conditions: RNA 1 μM, p10 0.1-20 μM, MblZF 1 and 1.5 μM, ppyawa 0.5 and 1 μM, payawe 1 μM
Description: However, this effect was not reverted when the RNA was incubated jointly with MblZF and p10, regardless of the order of addition (C).
In order to study possible changes in the secondary structure of RNA induced by p10, in the first place we performed a circular dichroism (CD) experiment, using an RNA with unlabelled CUG repeats (CUG60). The circular dichroism of nucleic acids is caused by the stacking of the bases that make up the sequence thereof. Consequently, when a molecule binds to RNA, affecting the structure thereof, a change is detected in its CD spectrum. […] When we incubated the RNA with increasing concentrations of the peptide of SEQ ID NO: 10 (0.1 μM, 0.5 μM, 1 μM, 10 μM and 20 μM), a similar effect was observed (FIG. 27B). During the readings, the RNA was kept in the cuvette inside the dichrograph at 10° C. Throughout the 3 hours of each experiment, it was possible for the RNA to have been degraded; this would explain the decrease in the intensity of the signal observed. In order to rule out this possibility, the CD spectrum of CUG60 RNA was measured at times 0 and 3 h, having kept the CUG60 RNA at 10° C. at all times.

[7] = tested on: MBNL1 binding to the CUG repeats; conditions: in vitro; cited from earlier work
[8] = 100-μg dose, one mouse just before it died

For “p5: defined hexapeptide obtained following deconvolution of the D-amino acid combinatorial library ([dC][dQ][dY][dA][dQ][dE])”, the “destructuration of CUG23 probe, comparative 2-aminopurine assay” value [1] was “significant levels of specificity and efficacy” and the “Treated born/Control born” value ([2]; 25 μM) was 2.0.

For `C[C@@H](NC(=O)[C@@H](Cc1ccc(O)cc1)NC(=O)[C@H]1CCCN1C(=O)[C@H]1CCCN1)C(=O)N[C@H](Cc1c[nH]c2ccccc12)C(=O)N[C@H](CCC(=O)O)C(=O)O` [p10] (H-[dP][dP][dY][dA][dW][dE]-OH), the “visual autopsy and histological analysis of the muscles vs DMSO controls” value ([3]; 0.5, 1, 10, 100 μg i.m., 4 weeks after injection) was “did not reveal significant differences”, the “urea and GPT in the blood vs controls” value ([3]; 10-μg and 100-μg doses i.m.) was “even higher values of urea and GPT” and the “time of death after the injection” value ([3]; 100-μg dose) was “approximately 11 days”. The mice that died ([3]; 100-μg dose, 6 mice per dose) was “two”, the “CPK in blood, times greater than the control with DMSO” value [3, 8] was 15 times and the “CPK in blood, times greater than the upper limit of the standard values” [3, 8] was 28 times. For the same compound, the “urea, creatinine, CPK and GGT in the blood” value [3, 8] was “extremely high values”.

With payawe the “activity on lethality phenotype (number of females), alanine scanning” value (“activity on lethality phenotype” below) [4] was “loss of activity”, the “significant binding to FAM-(CUG)23 RNA” value [5] was “None” and the “change of circular dichroism spectrum of CUG60” value [6] was “did not occur”. For the same compound, the “change of circular dichroism spectrum of CUG60” value ([6]; listed as p29.4) was “did not change the RNA spectrum” and the “increase in the fluorescence emission of 2-AP-(CUG)23” value ([1]; peptide 100 μM, RNA 1 μM (1:100)) was “None of these peptides caused changes”.

For “p6: defined hexapeptide obtained following deconvolution of the D-amino acid combinatorial library ([dC][dQ][dY][dA][dW][dE])”, the “Treated born/Control born” value ([2]; 25 μM) was “—”.

With “p16: defined hexapeptide obtained following deconvolution of the D-amino acid combinatorial library ([dP][dQ][dY][dT][dW][dE])” the “Treated born/Control born” value ([2]; 38.5 μM) was 0.4.

For “p8: defined hexapeptide obtained following deconvolution of the D-amino acid combinatorial library ([dC][dQ][dY][dT][dW][dE])”, the “Treated born/Control born” value ([2]; 57 μM) was 0.9.

For `NC[C@@H]1O[C@H](O[C@H]2[C@@H](O)[C@H](O[C@@H]3[C@@H](O)[C@H](N)C[C@H](N)[C@H]3O[C@H]3O[C@H](CN)[C@@H](O)[C@H](O)[C@H]3N)O[C@@H]2CO)[C@H](N)[C@@H](O)[C@@H]1O` [neomycin B], the “binding of MBNL1 to the CUG repeats” value [7] is listed as “inhibited the binding of MBNL1”.

For “p14: defined hexapeptide obtained following deconvolution of the D-amino acid combinatorial library ([dP][dQ][dY][dA][dW][dE])”, the “Treated born/Control born” value ([2]; 40 μM) was 1.8.

For ppaawe, the “activity on lethality phenotype” value [4] was “loss of activity” and the “significant binding to FAM-(CUG)23 RNA” value [5] was “None”.

For “p4: defined hexapeptide obtained following deconvolution of the D-amino acid combinatorial library ([dC][dP][dY][dT][dW][dE])”, the “Treated born/Control born” value ([2]; 62 μM) was “—”.

In the case of “p15: defined hexapeptide obtained following deconvolution of the D-amino acid combinatorial library ([dP][dQ][dY][dT][dQ][dE])”, the “destructuration of CUG23 probe, comparative 2-aminopurine assay” value [1] is reported as “significant levels of specificity and efficacy” and the “Treated born/Control born” value ([2]; 40 μM) is reported as 0.5.

For `CN1C(=Cc2cc[n+](C)c3ccccc23)Sc2ccccc21` [thiazole orange], the “binding of MBNL1 to the CUG repeats” value [7] is given as “inhibited the binding of MBNL1”.

With apyawe the “activity on lethality phenotype” value [4] was “loss of activity” and the “significant binding to FAM-(CUG)23 RNA” value [5] was “None”.

With ppyaae the “activity on lethality phenotype” value [4] was “loss of activity” and the “significant binding to FAM-(CUG)23 RNA” value [5] was “None”.
